Values joined by “and” are separate entries in the source; they are usually repeats but may differ in a detail not shown here. Identical values can stand only once.
Columns and labels:
[1] = Fluorescence lifetime decay (time-resolved) of the donor-acceptor conjugate; type: physicochemical; conditions: for long lifetime: excitation of BH22IAM and energy transfer to fluorescein: terbium complex, excited at BH22IAM absorption (~340 nm), fluorescein emission 520 nm
Description: A short lifetime corresponding to the direct excitation of fluorescein (3.92 nsec) and a long lifetime corresponding to excitation of BH22IAM and energy transfer to fluorescein (524 nsec).
In another exemplary embodiment, the compounds of the invention emit light at an emission wavelength of the fluorophore attached to the metal chelate through the acceptor-linker. […] For example, compound 3, when coordinated to terbium and excited at a BH22IAM absorption wavelength (˜340 nm), the metal chelate emits at 520 nm, the characteristic wavelength of fluorescein with a lifetime of 524 nsec. The new lifetime is over 100-fold longer than the lifetime for a fluorescein solution that is directly excited (<5 nsec).
The 524 nsec of the conjugated fluorescein is acquired through direct excitation of the Tb-BH22IAM complex at 340 nm, which normally has a very long lifetime (2.6 msec), followed by energy transfer to the conjugated fluorescein and emission at the characteristic wavelength for fluorescein (520 nm).

[2] = Steady-state absorption and emission spectra; type: physicochemical; conditions: for emission wavelength / emission maxima: excited at BH22IAM absorption wavelength (~340 nm)
Description: FIG. 8 is a steady-state absorption spectrum of FITC-BH22IAM conjugate.

Row | Compound | long lifetime: excitation of BH22IAM and energy transfer to fluorescein [1] | absorption maximum (BH22IAM) [2] [nm] | absorption maximum (fluorescein) [2] [nm] | emission wavelength / emission maxima [2] | lifetime relative to a directly excited fluorescein solution ([1]; 524 nsec versus <5 nsec)
1 | O=C(O)c1cc(NC(=S)NCCCCC2CN3CCNC(=O)c4cccc(c4O)C(=O)NCCN(CCNC(=O)c4cccc(c4O)C(=O)N2)CCN2CCNC(=O)c4cccc(c4O)C(=O)NCCN(CCNC(=O)c4cccc(c4O)C(=O)NCC2)CC3)ccc1-c1c2ccc(=O)cc-2oc2cc(O)ccc12 (stereo not shown) [4a] | 520 nsec and 524 nsec | 340 | 490 | 519 nm and 520 nm | –
2 | O=C(O)c1cc(NC(=S)NCCCCC2CN3CCNC(=O)c4cccc(c4O)C(=O)NCCN(CCNC(=O)c4cccc(c4O)C(=O)N2)CCN2CCNC(=O)c4cccc(c4O)C(=O)NCCN(CCNC(=O)c4cccc(c4O)C(=O)NCC2)CC3)ccc1-c1c2ccc(=O)cc-2oc2cc(O)ccc12 (stereo not shown) [compound 3] | 524 nsec | – | – | 520 nm | over 100 fold

— US20080213780A1, “MULTI-COLOR TIME RESOLVED FLUOROPHORES BASED ON MACROCYCLIC LANTHANIDE COMPLEXES” (Lumiphore, Inc., priority 2007, published 2008)
